Data reported in patent US4882357A, “Novel N-(substituted-phenyl)-5-(substituted-2,5-dimethylphenoxy)-2,2-dimethylp entanamides” (Warner-Lambert Company, priority 1988, dated 1989).

Key:
[1] = molecular target: T1, acyl-CoA:cholesterol acyltransferase (ACAT) (Oryctolagus cuniculus, UniProt G1SFD9); test: inhibition of esterification of cholesterol by ACAT (cholesteryl oleate formation), rabbit intestinal microsomal fraction; assay type: biochemical; settings: endogenous cholesterol, exogenous 14C-oleoyl-CoA, read-out: IC50 (concentration of test compound required to inhibit cholesteryl oleate formation to 50% of control)
T1 construct: rabbit intestinal microsomal fraction; from tissue; host or cells: rabbit intestine, microsomal fraction
T1 sequence (G1SFD9 1-524): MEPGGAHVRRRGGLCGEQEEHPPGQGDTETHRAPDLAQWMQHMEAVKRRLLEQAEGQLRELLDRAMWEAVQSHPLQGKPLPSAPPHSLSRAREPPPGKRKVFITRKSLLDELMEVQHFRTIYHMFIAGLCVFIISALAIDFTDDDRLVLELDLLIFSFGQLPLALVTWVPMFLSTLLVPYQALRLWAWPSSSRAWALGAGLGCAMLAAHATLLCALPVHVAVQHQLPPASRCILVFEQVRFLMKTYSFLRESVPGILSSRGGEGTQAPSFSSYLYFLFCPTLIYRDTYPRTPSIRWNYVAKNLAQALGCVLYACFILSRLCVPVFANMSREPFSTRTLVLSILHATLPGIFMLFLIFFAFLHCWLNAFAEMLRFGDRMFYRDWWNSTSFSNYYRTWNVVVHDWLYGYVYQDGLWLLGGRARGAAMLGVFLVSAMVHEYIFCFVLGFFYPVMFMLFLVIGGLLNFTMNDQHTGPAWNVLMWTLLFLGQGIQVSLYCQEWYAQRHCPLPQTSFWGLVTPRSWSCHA
Procedure: The compounds of the present invention were tested for their ability to inhibit the esterification of cholesterol by the enzyme acyl-CoA:cholesterol acyltransferase (ACAT). The data in the table below is expressed as IC50 values, i.e., the concentration of test compound required to inhibit cholesteryl oleate formation to 50% of control.
The in vitro test employed is more fully described in Field, F. J. and Salome, R. G., Biochemica et Biophysica Acta, 712, pp 557-570 (1982). The assay evaluates the ability of a test compound to inhibit the esterification of cholesterol using endogenous cholesterol of a rabbit intestinal microsomal fraction and exogenous ^14 C-oleoyl-CoA as reactants.

HDL = test: elevation of HDL, test drug versus gemfibrozil; assay type: in vivo, rats; settings: 50 mg/kg test drug vs 50 mg/kg gemfibrozil; 1 = as effective as gemfibrozil
Procedure: Additionally, the elevation of HDL is reported in the table as a ratio of the elevation of HDL effected by a dose of 50 mg/kg of the test drug divided by the elevation of HDL effected by a 50 mg/kg dose of gemfibrozil which is used as a control in each experiment. [formula] Thus, a figure of 1 means that the test drug was as effective as gemfibrozil in elevating HDL. […] The test procedure is described in U.S. Pat. No. 4,413,011.

[2] = system: patients with elevated cholesterol levels; settings: cited from earlier work

SMILES	IC50 [1]	ratio of the elevation of HDL effected by test drug divided by the elevation of HDL effected by gemfibrozil (HDL)	effect on LDL and HDL ([2]; in words)	reduction of the rate of heart attack and sudden cardiac death ([2]; patients with elevated cholesterol levels, five years)
Cc1ccc(C)c(OCCCC(C)(C)C(=O)O)c1 [gemfibrozil]	–	–	both lowers LDL and elevates HDL	34%
Cc1ccc(C)c(OCCCC(C)(C)C(=O)Nc2ccc(F)cc2F)c1 [Example 1g, N-(2,4-Difluorophenyl)-5-(2,5-dimethylphenoxy)-2,2dimethylpentanamide]	7 µM	0.36	–	–
Cc1ccc(C)c(OCCCC(C)(C)C(=O)Nc2ccc3c(c2)OCO3)c1 [Example 1k, N-1,3-Benzodioxol-5-yl-5-(2,5-dimethylphenoxy)-2,2dimethylpentanamide]	6 µM	1.13	–	–
CCOC(=O)C=Cc1ccc(NC(=O)C(C)(C)CCCOc2cc(C)ccc2C)cc1 [Example 5, 3-[4-[[5-(2,5-Dimethylphenoxy)-2,2-dimethyl-1-oxopentyl]amino]phenyl]-2-propenoic acid, ethyl ester, reference compound]	45 µM	0.56	–	–
Cc1ccc(C)c(OCCCC(C)(C)C(=O)Nc2c(F)cc(F)cc2F)c1 [Example 1h, 5-(2,5-dimethylphenoxy)-2,2-dimethyl-N-(2,4,6-trifluorophenyl)pentanamide]	0.8 µM	0.74	–	–
Cc1ccc(NC(=O)C(C)(C)CCCOc2cc(C)ccc2C)c(C)c1 [Example 1b, 5-(2,5-Dimethylphenoxy)-N-(2,4-dimethylphenyl)-2,2-dimethylpentanamide]	8 µM	1.29	–	–
COc1ccc(NC(=O)C(C)(C)CCCOc2cc(C)ccc2C)cc1OC [Example 1c, N-(3,4-Dimethoxyphenyl)-5-(2,5-dimethylphenoxy)-2,2-dimethylpentanamide]	3 µM	1.10	–	–
COc1cc(C)ccc1NC(=O)C(C)(C)CCCOc1cc(C)ccc1C [Example 1a, 5-(2,5-dimethylphenoxy)-N-(2-methoxy-4-methylphenyl)-2,2-dimethylpentanamide]	6 µM	0.80	–	–
COc1ccccc1NC(=O)C(C)(C)CCCOc1cc(C)ccc1C [Example 1, 5-(2,5-dimethylphenoxy)-N-(2-methoxyphenyl)-2,2-dimethylpentanamide]	14 µM	0.31	–	–
Cc1ccc(C)c(OCCCC(C)(C)C(=O)Nc2ccc(C)cc2OC(C)C)c1 [Example 1j, 5-(2,5-Dimethylphenoxy)-2,2-dimethyl-N-[4-methyl-2-(1-methylethoxy)phenyl]pentanamide]	8 µM	0.84	–	–

More lines, main results first:

IC50 [1]	SMILES	ratio of the elevation of HDL effected by test drug divided by the elevation of HDL effected by gemfibrozil (HDL)	effect on LDL and HDL ([2]; in words)	reduction of the rate of heart attack and sudden cardiac death ([2]; patients with elevated cholesterol levels, five years)
10 µM	CCCCCCOc1ccccc1NC(=O)C(C)(C)CCCOc1cc(C)ccc1C [Example 1f, 5-(2,5-dimethylphenoxy)-N[2-(hexyloxy)phenyl]-2,2-dimethylpentanamide]	0.42	–	–
5 µM	CCOc1ccccc1NC(=O)C(C)(C)CCCOc1cc(C)ccc1C [Example 1d, 5-(2,5-dimethylphenoxy)-N-(2-ethoxyphenyl)-2,2-dimethylpentanamide]	1.08	–	–
21 µM	COC(=O)C(C)(C)CCCOc1cccc(NC(=O)C(C)(C)CCCOc2cc(C)ccc2C)c1 [Example 1m, 5-[3-[[5-(2,5-dimethylphenoxy)-2,2-dimethyl-1-oxopentyl]amino]phenoxy]-2,2-dimethylpentanoic acid, methyl ester]	1.0	–	–
8 µM	COC(=O)C(C)(C)CCCOc1ccccc1NC(=O)C(C)(C)CCCOc1cc(C)ccc1C [Example 1l, 5-[2[[5-(2,5-dimethylphenoxy)2,2-dimethyl-1-oxopentyl]amino]phenoxy]-2,2-dimethylpentanoic acid, methyl ester]	0.4	–	–
